From patent publication US5859257A, “Isoxazole compounds as cyclooxygenase inhibitors” (G. D. Searle & Co., priority 1996, dated 1999)

Columns and labels:
[1] = system: hyperalgesic foot withdrawal (rat); assay: Rat Carrageenan-induced Analgesia Test; assay type: in vivo, Male Sprague-Dawley rats; conditions: oral, 3 h after carrageenan
Description: Rat Carrageenan-induced Analgesia Test
Male Sprague-Dawley rats were treated as previously described for the Carrageenan Foot Pad Edema test. Three hours after the injection of the carrageenan, the rats were placed in a special plexiglass container with a transparent floor having a high intensity lamp as a radiant heat source, positionable under the floor. After an initial twenty minute period, thermal stimulation was begun on either the injected foot or on the contralateral uninjected foot. A photoelectric cell turned off the lamp and timer when light was interrupted by paw withdrawal. The time until the rat withdraws its foot was then measured. The withdrawal latency in seconds was determined for the control and drug-treated groups, and percent inhibition of the hyperalgesic foot withdrawal determined.

[2] = system: rat paw edema; assay: Rat Carrageenan Foot Pad Edema Test; assay type: in vivo, Male Sprague-Dawley rats; conditions: oral, 3 h after carrageenan
Description: Rat Carrageenan Foot Pad Edema Test
Male Sprague-Dawley rats were selected in each group so that the average body weight was as close as possible. Rats were fasted with free access to water for over sixteen hours prior to the test. […] One hour later a subplantar injection of 0.1 mL of 1% solution of carrageenan/sterile 0.9% saline was administered and the volume of the injected foot was measured with a displacement plethysmometer connected to a pressure transducer with a digital indicator. Three hours after the injection of the carrageenan, the volume of the foot was again measured.

[3] = molecular target: COX-1; assay: Evaluation of COX-1 activity in vitro (PGE2 ELISA, recombinant enzyme); assay type: biochemical, human or murine; conditions: arachidonic acid 10 μM, pH 8.0, pre-incubation 10-20 minutes
Description: (§1) a. Preparation of recombinant COX baculoviruses
(§2) Recombinant COX-1 and COX-2 were prepared as scribed by Gierse et al, [J. Biochem., 305, 479-84 (1995)]. […] Recombinant baculoviruses were isolated by transfecting 4 μg of baculovirus transfer vector DNA into SF9 insect cells (2×10^8) along with 200 ng of linearized baculovirus plasmid DNA by the calcium phosphate method. See M. D. Summers and G. E. Smith, A Manual of Methods for Baculovirus Vectors and Insect Cell Culture Procedures, Texas Agric. Exp. Station Bull. 1555 (1987). Recombinant viruses were purified by three rounds of plaque purification and high titer (10^7 -10^8 pfu/mL) stocks of virus were prepared. For large scale production, SF9 insect cells were infected in 10 liter fermentors (0.5×10^6 /mL) with the recombinant baculovirus stock such that the multiplicity of infection was 0.1. After 72 hours the cells were centrifuged and the cell pellet homogenized in Tris/Sucrose (50 mM: 25%, pH 8.0) containing 1% 3-[(3-cholamidopropyl)dimethylammonio]-1-propanesulfonate (CHAPS). The nomogenate was centrifuged at 10,000×G for 30 minutes, and the resultant supernatant was stored at -80° C. before being assayed for COX activity.
(§3) COX activity was assayed as PGE2 formed/μg protein/time using an ELISA to detect the prostaglandin released. CHAPS-solubilized insect cell membranes containing the appropriate COX enzyme were incubated in a potassium phosphate buffer (50 mM, pH 8.0) containing epinephrine, phenol, and heme with the addition of arachidonic acid (10 μM). […] Any reaction between the arachidonic acid and the enzyme was stopped after ten minutes at 37° C./room temperature by transferring 40 μl of reaction mix into 160 μl ELISA buffer and 25 μM indomethacin. The PGE2 formed was measured by standard ELISA technology (Cayman Chemical).

[4] = molecular target: COX-2; assay: Evaluation of COX-2 activity in vitro (PGE2 ELISA, recombinant enzyme); assay type: biochemical, human or murine; conditions: arachidonic acid 10 μM, pH 8.0, pre-incubation 10-20 minutes
Description: The COX-2 inhibition activity of the compounds of this invention illustrated in the Examples was determined by the following methods.
as §1, §2, §3

Row | IC50 [3] | IC50 [4] | Structure (SMILES) | ANALGESIA % Inhibition ([1]; @ 10 mg/kg body weight) | RAT PAW EDEMA % Inhibition ([2]; @ 10 mg/kg body weight) | ANALGESIA % Inhibition ([1]; *@ 30 mg/kg) | RAT PAW EDEMA % Inhibition ([2]; *@ 30 mg/kg)
1 | > 100 µM | < 0.1 µM | NS(=O)(=O)c1ccc(-c2c(-c3ccccc3)noc2C(F)F)cc1 [Example 1j, 4-[5-difluoromethyl-3-phenylisoxazol-4-yl]benzenesulfonamide] | 28% | 37% | – | –
2 | 100 µM | < 0.1 µM | CCc1noc(-c2ccccc2)c1-c1ccc(S(N)(=O)=O)cc1 [Example 14, 4-[3-Ethyl-5-phenylisoxazol-4-yl]benzenesulfonamide] | – | – | 27% | –

Further lines, the molecule ahead of its results:

Row | Structure (SMILES) | IC50 [3] | IC50 [4] | ANALGESIA % Inhibition ([1]; @ 10 mg/kg body weight) | RAT PAW EDEMA % Inhibition ([2]; @ 10 mg/kg body weight) | ANALGESIA % Inhibition ([1]; *@ 30 mg/kg) | RAT PAW EDEMA % Inhibition ([2]; *@ 30 mg/kg)
3 | Cc1onc(-c2ccccc2)c1-c1ccc(S(N)(=O)=O)cc1 [Example 1, 4-[5-Methyl-3-phenylisoxazol-4-yl]benzenesulfonamide] | – | – | 33% | 29% | – | –
4 | NS(=O)(=O)c1ccc(-c2c(-c3ccccc3)noc2CO)cc1 [Example 10, 4-[5-Hydroxymethyl-3-phenylisoxazol-4-yl]benzenesulfonamide] | > 100 µM | – | 74% | 57% | – | –
5 | CC(C)(O)COCc1onc(-c2ccccc2)c1-c1ccc(S(N)(=O)=O)cc1 [Example 56, 4-[5-(2-Methyl-2-hydroxy-1-n-propyloxymethyl)-3-phenylisoxazol-4-yl]benzenesulfonamide] | > 100 µM | 0.2 µM | – | – | 27% | 29%
6 | CC(C)(O)CCCc1onc(-c2ccccc2)c1-c1ccc(S(N)(=O)=O)cc1 [Example 57, 4-[5-(4-Hydroxy-4-methylpentyl)-3-phenylisoxazol-4-yl]benzenesulfonamide] | > 100 µM | 0.1 µM | – | – | 5% | 23%
7 | NS(=O)(=O)c1ccc(-c2c(-c3ccccc3)noc2CCO)cc1 [Example 66, 4-[5-(2-Hydroxyethyl)-3-phenylisoxazol-4-yl]benzenesulfonamide] | > 100 µM | < 0.1 µM | – | – | 49% | 43%
